Measurements taken from article PMC10329608, “Investigation of the structure-activity relationship at the N-terminal part of minigastrin analogs” (EJNMMI Research, 2023).
Read-outs that look alike come from different tables or passages of the source. Non-standard residues stand in square brackets, D forms with d. Residues, ends and D or L forms follow the SMILES beside them. *: point of attachment. DOTA = O=C(O)CN1CCN(CC(=O)O)CCN(CC(=O)*)CCN(CC(=O)O)CC1; 1Nal = N[C@@H](Cc1cccc2ccccc12)C(=O)O; NMeNle = CCCC[C@H](NC)C(=O)O; PEG4 = NCCOCCOCCOCCOCCC(=O)O

Experiments:
[1] = type: physicochemical; conditions: pH 7.4
Description: Lipophilicity (depicted as n-octanol-phosphate-buffered saline solution (PBS, pH = 7.4) distribution coefficient, logD7.4) of ^177Lu-labeled minigastrin analogs was evaluated as previously published.

CCK-2R = target: T1, CCK-2R (Rattus norvegicus, UniProt P30553); experiment: Competitive binding (IC50) on AR42J cells against [177Lu]Lu-DOTA-PP-F11N; conditions: AR42J cells, 3 h
T1 construct: endogenous in cells; host or cells: AR42J cells
T1 sequence (P30553 1-452): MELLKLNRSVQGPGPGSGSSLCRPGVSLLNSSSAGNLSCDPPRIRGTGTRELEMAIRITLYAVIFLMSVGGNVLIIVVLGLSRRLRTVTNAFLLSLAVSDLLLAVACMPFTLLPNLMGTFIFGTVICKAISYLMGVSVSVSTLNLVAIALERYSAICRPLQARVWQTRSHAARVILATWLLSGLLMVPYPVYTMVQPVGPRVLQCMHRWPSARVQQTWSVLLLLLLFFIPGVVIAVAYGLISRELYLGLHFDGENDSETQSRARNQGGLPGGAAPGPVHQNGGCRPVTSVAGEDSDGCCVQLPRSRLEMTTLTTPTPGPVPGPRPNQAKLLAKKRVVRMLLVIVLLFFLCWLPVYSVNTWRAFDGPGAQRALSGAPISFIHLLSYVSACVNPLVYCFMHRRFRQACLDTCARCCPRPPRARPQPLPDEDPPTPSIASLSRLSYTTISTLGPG
Description: IC50 values of all compounds were determined according to a previously published procedure. In brief, competitive binding studies were performed via co-incubation of increasing concentrations of the peptide of interest (10^−10 to 10^–4 M, in triplicate) together with the reference compound [^177Lu]Lu-DOTA-PP-F11N (0.3 pmol/well) on AR42J cells (2 × 10^5 cells per 1 mL/well) at 37 °C for 3 h. Table S1. CCK-2R affinity and lipophilicity data of the compounds evaluated. Affinity data were determined on AR42J cells (2.0 x 10^5 cells/well/mL) and [^177Lu]Lu-DOTA-PP-F11N (0.3 pmol/well) as radiolabeled reference (3 h, 37°C, RPMI 1640, 5 mM L-Gln, 5 mL non-essential amino acids (100x), 10% FCS + 5% BSA (v/v)).

A431-CCK-2R tumor = conditions: mouse, in vivo, 1 h; cited from earlier work
[2] = [177Lu]Lu-DOTA-PP-F11N as reference, 37 °C, values in text, read-out: IC50 (CCK-2R affinity)

Molecule	logD [1]	IC50 (CCK-2R; 2.0 x 10^5 cells/well/mL, [177Lu]Lu-DOTA-PP-F11N 0.3 pmol/well as reference, 37°C, natLu-labeled DOTA peptides, tetrapeptides unlabeled, read-out: IC50)	IC50 (CCK-2R; [2])	logD7.4 [1]	activity levels in the tumor (A431-CCK-2R tumor)	activity uptake in the kidneys (A431-CCK-2R tumor)
CCCC[C@@H](C(=O)N[C@@H](CC(=O)O)C(=O)N[C@@H](Cc1cccc2ccccc12)C(N)=O)N(C)C(=O)[C@H](Cc1c[nH]c2ccccc12)NC(=O)CCOCCOCCOCCOCCNC(=O)CN1CCN(CC(=O)O)CCN(CC(=O)O)CCN(CC(=O)O)CC1 [[^nat/177Lu]Lu-DOTA-CCK-64, metal not drawn] ({DOTA-PEG4}-W[NMeNle]D[1Nal]-NH2)	-2.21 ± 0.07	7.64 ± 0.86 nM	7.6 ± 0.9 nM			
CCCC[C@@H](C(=O)N[C@@H](CC(=O)O)C(=O)N[C@@H](Cc1cccc2ccccc12)C(N)=O)N(C)C(=O)[C@H](Cc1c[nH]c2ccccc12)NC(=O)CNC(=O)[C@H](Cc1ccc(O)cc1)NC(=O)[C@H](C)NC(=O)[C@@H](CCC(=O)O)NC(=O)CN1CCN(CC(=O)O)CCN(CC(=O)O)CCN(CC(=O)O)CC1 [[^natLu]Lu-DOTA-MGS5, DOTA-D-Glu-Ala-Tyr-Gly-Trp-(N-Me)Nle-Asp-1-Nal-NH2, metal not drawn, reference compound]			5.2 ± 0.8 nM	− 2.21 ± 0.08		
DOTA-D-Glu-Ala-Tyr-Gly-Trp-(N-Me)Nle-Asp-1-Nal-NH2 [[^68 Ga]Ga-DOTA-MGS5]					23.3 ± 4.7 %ID/g	5.7 ± 1.4 %ID/g
